Experimental data published in article PMC9502539, “1,2,3-Triazole-Benzofused Molecular Conjugates as Potential Antiviral Agents against SARS-CoV-2 Virus Variants” (Life, 2022).
Like-named read-outs stand apart in the source and are kept apart here.

Target: Omicron spike protein (Severe acute respiratory syndrome coronavirus 2, UniProt P0DTC2, E484A/G339D/G446S/G496S/K417N/N440K/N501Y/Q493R/Q498R/S371L/S373P/S375F/S477N/T478K/Y505H)
Format: binding, SARS-CoV-2 Omicron variant (B.1.1.529 BA.1)

| Compound | remaining activity % of omicron spike proteins (0.1 µM) | remaining activity % of omicron spike proteins (0.2 µM) | remaining activity % of omicron spike proteins (0.5 µM) | remaining activity % of omicron spike proteins (0.75 µM) | remaining activity % of omicron spike proteins (1 µM) |
| --- | --- | --- | --- | --- | --- |
| CC(C)(O/N=C(\C(=O)N[C@@H]1C(=O)N2C(C(=O)[O-])=C(C[n+]3ccccc3)CS[C@H]12)c1csc(N)n1)C(=O)O [Ceftazidime, ceftazidime, reference compound] | 89% | 68% | 54% | 44% | 34% |
| O=C(Cn1cc(CSc2nc3ccccc3n2Cc2cn(CC(=O)NNC(=S)Nc3ccccc3)nn2)nn1)NNC(=S)Nc1ccccc1 [compound 4] | 73.1% | 40% | 20% | 10% | 8% |
| O=C(Cn1cc(CSc2nc3ccccc3n2Cc2cn(CC(=O)NNC(=S)Nc3ccc(F)cc3)nn2)nn1)NNC(=S)Nc1ccc(F)cc1 [compound 5] | 82% | 38.7% | 30% | 20% | 16% |
| S=c1[nH]nc(Cn2cc(CSc3nc4ccccc4n3Cc3cn(Cc4n[nH]c(=S)n4-c4ccccc4)nn3)nn2)n1-c1ccccc1 [compound 6] | 79% | 45.6% | 29% | 16% | 10% |
| Nn1c(Cn2cc(CSc3nc4ccccc4n3Cc3cn(Cc4n[nH]c(=S)n4N)nn3)nn2)n[nH]c1=S [compound 7] | 85% | 43% | 40% | 35% | 30% |
| Cc1onc(NS(=O)(=O)c2ccc(-n3cc(CSc4nc5ccccc5n4Cc4cn(-c5ccc(S(=O)(=O)Nc6noc(C)c6C)cc5)nn4)nn3)cc2)c1C [compound 9] | 65.8% | 30.4% | 10.3% | 5.1% | 2% |
| Cc1ccc2nc(NC(=O)Cn3cc(CN4C(=O)C(=O)c5ccccc54)nn3)sc2c1 [compound 12] | 94% | 90% | 82% | 74% | 59% |
